Measurements from paper PMC9852063 (Molecular carcinogenesis, 2022).
pKd: −log10 of the molar value.

Molecular target: T1, Doublecortin like kinase 1 (DCLK1) (Homo sapiens, UniProt O15075)
T1 sequence (O15075 1-740): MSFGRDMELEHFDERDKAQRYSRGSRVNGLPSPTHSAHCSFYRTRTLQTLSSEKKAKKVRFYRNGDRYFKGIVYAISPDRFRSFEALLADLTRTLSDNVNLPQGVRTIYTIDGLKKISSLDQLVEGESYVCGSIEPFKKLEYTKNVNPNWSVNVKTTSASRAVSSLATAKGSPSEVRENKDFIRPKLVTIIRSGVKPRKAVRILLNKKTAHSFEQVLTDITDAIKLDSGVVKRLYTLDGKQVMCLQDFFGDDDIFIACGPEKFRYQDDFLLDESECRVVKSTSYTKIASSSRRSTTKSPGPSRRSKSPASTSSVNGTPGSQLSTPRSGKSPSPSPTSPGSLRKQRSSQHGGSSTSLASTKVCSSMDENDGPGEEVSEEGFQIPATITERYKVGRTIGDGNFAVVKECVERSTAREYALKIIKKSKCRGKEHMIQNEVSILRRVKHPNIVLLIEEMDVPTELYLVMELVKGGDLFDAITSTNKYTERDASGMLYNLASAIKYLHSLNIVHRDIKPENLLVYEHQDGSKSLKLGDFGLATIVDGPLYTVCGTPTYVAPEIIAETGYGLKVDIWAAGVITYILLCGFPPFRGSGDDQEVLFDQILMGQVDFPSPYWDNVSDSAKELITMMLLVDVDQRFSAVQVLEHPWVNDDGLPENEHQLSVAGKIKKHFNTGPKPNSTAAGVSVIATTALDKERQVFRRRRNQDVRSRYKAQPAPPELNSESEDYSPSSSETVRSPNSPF
Assay: SPR with immobilized recombinant DCLK1
Type: binding

O=C1C(=Cc2ccc(F)cc2F)CNCC1=Cc1ccc(F)cc1F [DiFiD, 3,5-bis (2,4-difluorobenzylidene)-4-piperidone]
pKd: 7.15
